Laboratory results published in article PMC11003488 (Journal of Enzyme Inhibition and Medicinal Chemistry, 2023).
Like-named read-outs stand apart in the source and are kept apart here.

Tests used:
Renal cancer cell lines = test: NCI-60 SRB growth inhibition, subpanel; format: cell-based, human; settings: for GI50: Homo sapiens
MDA-MB-231/ATCC = test: NCI-60 SRB growth inhibition, one-dose and five-dose; format: cell-based; settings: Homo sapiens; for GI50: MDA-MB-231
MDA-MB-468 = test: as above; format: cell-based; settings: Homo sapiens; for GI50: MDA-MB-468; for inhibition at 10 µM: MDA-MB-468, read-out: percent growth inhibition
SF-295 = test: as above; format: cell-based; settings: Homo sapiens; for GI50: SF-295; for inhibition at 10 µM: SF-295, read-out: percent growth inhibition
UO-31 = test: as above; format: cell-based; settings: Homo sapiens; for GI50: UO-31
SW-620 = test: as above; format: cell-based; settings: Homo sapiens; for GI50: SW-620; for inhibition at 10 µM: SW-620, read-out: percent growth inhibition
Breast cancer cell lines = test: NCI-60 SRB growth inhibition, subpanel; format: cell-based, human; settings: for GI50: Homo sapiens
CAKI-1 = test: NCI-60 SRB growth inhibition, one-dose and five-dose; format: cell-based; settings: Homo sapiens; for GI50: CAKI-1; for inhibition at 10 µM: CAKI-1, read-out: percent growth inhibition
SN12C = test: as above; format: cell-based; settings: Homo sapiens; for inhibition at 10 µM: read-out: percent growth inhibition
RXF 393 = test: as above; format: cell-based; settings: Homo sapiens; for GI50: RXF 393; for inhibition at 10 µM: RXF 393, read-out: percent growth inhibition
DU-145 = test: as above; format: cell-based; settings: Homo sapiens; for GI50: DU-145; for inhibition at 10 µM: DU-145, read-out: percent growth inhibition
Leukaemia cell lines = test: NCI-60 SRB growth inhibition, subpanel; format: cell-based, human; settings: for GI50: Homo sapiens
Colon cancer cell lines = test: NCI-60 SRB growth inhibition, subpanel; format: cell-based, human; settings: for GI50: Homo sapiens
CNS cancer cell lines = test: NCI-60 SRB growth inhibition, subpanel; format: cell-based, human; settings: for GI50: Homo sapiens
[1] = system: Ovarian cancer cell lines; test: NCI-60 SRB growth inhibition, subpanel; format: cell-based, human; settings: for GI50: Homo sapiens
SR = test: NCI-60 SRB growth inhibition, one-dose and five-dose; format: cell-based; settings: Homo sapiens
NSCLC cell lines = test: NCI-60 SRB growth inhibition, subpanel; format: cell-based, human; settings: for GI50: Homo sapiens
SF-539 = test: NCI-60 SRB growth inhibition, one-dose and five-dose; format: cell-based; settings: Homo sapiens; for GI50: SF-539; for inhibition at 10 µM: SF-539, read-out: percent growth inhibition
Melanoma cell lines = test: NCI-60 SRB growth inhibition, subpanel; format: cell-based, human; settings: for GI50: Homo sapiens
MDA-MB-435 = test: NCI-60 SRB growth inhibition, one-dose and five-dose; format: cell-based; settings: Homo sapiens; for GI50: MDA-MB-435; for inhibition at 10 µM: MDA-MB-435, read-out: percent growth inhibition
[2] = Cytotoxicity towards normal fibroblasts, safety index; format: cell-based, human; settings: human, WI-38 normal fibroblast cells
[3] = system: WI-38 normal human fibroblast cells; test: as above; format: cell-based; settings: WI-38 versus cancer cell lines
HL-60(TB) = test: cells; format: cell-based; settings: Homo sapiens; for GI50: HL-60; for inhibition at 10 µM: HL-60, read-out: percent growth inhibition
RPMI-8226 = test: NCI-60 SRB growth inhibition, one-dose and five-dose; format: cell-based; settings: Homo sapiens; for GI50: RPMI-8226; for inhibition at 10 µM: RPMI-8226, read-out: percent growth inhibition
MOLT-4 = test: as above; format: cell-based; settings: Homo sapiens; for GI50: MOLT-4; for inhibition at 10 µM: MOLT-4, read-out: percent growth inhibition
UACC-257 = test: as above; format: cell-based; settings: Homo sapiens; for GI50: UACC-257; for inhibition at 10 µM: UACC-257, read-out: percent growth inhibition
[4] = system: Prostate cancer cell lines; test: NCI-60 SRB growth inhibition, subpanel; format: cell-based, human; settings: for GI50: Homo sapiens
A549/ATCC = test: NCI-60 SRB growth inhibition, one-dose and five-dose; format: cell-based; settings: Homo sapiens; for GI50: A549; for inhibition at 10 µM: A549, read-out: percent growth inhibition
SNB-19 = test: as above; format: cell-based; settings: Homo sapiens; for GI50: SNB-19; for inhibition at 10 µM: SNB-19, read-out: percent growth inhibition
OVCAR-8 = test: as above; format: cell-based; settings: Homo sapiens; for inhibition at 10 µM: OVCAR-8, read-out: percent growth inhibition
Human VEGFR-2 = Human VEGFR-2 (Homo sapiens, UniProt P35968); test: VEGFR-2 inhibition assay; format: biochemical
Human VEGFR-2, sequence (P35968 20-1356): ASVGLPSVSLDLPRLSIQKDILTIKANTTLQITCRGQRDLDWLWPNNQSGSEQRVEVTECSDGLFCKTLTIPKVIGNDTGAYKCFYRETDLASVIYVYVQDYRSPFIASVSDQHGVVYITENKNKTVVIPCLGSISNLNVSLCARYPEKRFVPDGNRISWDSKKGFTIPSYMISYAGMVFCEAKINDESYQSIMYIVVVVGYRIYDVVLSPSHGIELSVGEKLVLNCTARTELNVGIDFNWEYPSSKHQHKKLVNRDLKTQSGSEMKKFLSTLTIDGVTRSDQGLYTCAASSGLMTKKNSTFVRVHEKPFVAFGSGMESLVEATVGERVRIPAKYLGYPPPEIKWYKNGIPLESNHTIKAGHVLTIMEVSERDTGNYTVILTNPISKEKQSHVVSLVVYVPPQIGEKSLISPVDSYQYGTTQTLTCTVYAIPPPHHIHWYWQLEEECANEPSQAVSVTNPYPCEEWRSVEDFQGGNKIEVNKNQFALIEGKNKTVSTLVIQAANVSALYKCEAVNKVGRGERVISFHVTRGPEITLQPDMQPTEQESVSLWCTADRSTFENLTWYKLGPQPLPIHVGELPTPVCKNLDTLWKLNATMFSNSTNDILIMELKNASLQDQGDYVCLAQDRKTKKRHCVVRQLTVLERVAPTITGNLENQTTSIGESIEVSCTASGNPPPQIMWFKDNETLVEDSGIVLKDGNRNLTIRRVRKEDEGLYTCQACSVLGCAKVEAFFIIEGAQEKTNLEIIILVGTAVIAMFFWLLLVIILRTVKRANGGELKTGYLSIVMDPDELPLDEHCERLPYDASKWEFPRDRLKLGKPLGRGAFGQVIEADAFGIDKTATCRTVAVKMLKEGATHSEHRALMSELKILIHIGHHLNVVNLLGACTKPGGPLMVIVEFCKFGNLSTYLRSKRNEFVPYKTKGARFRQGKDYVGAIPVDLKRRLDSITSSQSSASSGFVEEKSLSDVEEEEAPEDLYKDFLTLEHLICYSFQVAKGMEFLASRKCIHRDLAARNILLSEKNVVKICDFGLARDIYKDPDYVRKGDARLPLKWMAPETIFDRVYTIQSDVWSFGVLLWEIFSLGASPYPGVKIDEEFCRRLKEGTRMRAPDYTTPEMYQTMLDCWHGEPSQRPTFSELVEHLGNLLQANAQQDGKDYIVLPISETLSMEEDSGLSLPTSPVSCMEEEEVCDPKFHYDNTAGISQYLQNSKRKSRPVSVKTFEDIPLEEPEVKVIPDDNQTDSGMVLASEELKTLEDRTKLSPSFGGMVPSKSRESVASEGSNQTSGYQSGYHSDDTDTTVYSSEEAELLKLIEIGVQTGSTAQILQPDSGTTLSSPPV

## Cc1ccc(CNc2cccc(C(=O)/C=C/c3cccnc3)c2)cc1 [Compound 5a, (E)-1–(3-((4-methylbenzyl)amino)phenyl)-3-(pyridin-3-yl)prop-2-en-1-one]
Renal cancer cell lines; read-out: GI50 MG-MID
  GI50: 13.3 µM
MDA-MB-231/ATCC
  GI50: 11.3 µM
MDA-MB-231/ATCC; MDA-MB-231, read-out: percent growth inhibition
  inhibition at 10 µM: 110%
MDA-MB-468
  GI50: 6.3 µM
  inhibition at 10 µM: 153%
SF-295
  GI50: 14 µM
  inhibition at 10 µM: 58.9%
UO-31
  GI50: 11.7 µM
UO-31; UO-31, read-out: percent growth inhibition
  inhibition at 10 µM: 47.5%
SW-620
  GI50: 2.03 µM
  inhibition at 10 µM: 173%
Breast cancer cell lines; read-out: GI50 MG-MID
  GI50: 9.21 µM
CAKI-1
  GI50: 11.7 µM
  inhibition at 10 µM: 36.7%
SN12C
  GI50: 12.6 µM
  inhibition at 10 µM: 118%
RXF 393
  GI50: 12.3 µM
  inhibition at 10 µM: 67.9%
DU-145
  GI50: 13.3 µM
  inhibition at 10 µM: 53.9%
Leukaemia cell lines; read-out: GI50 MG-MID
  GI50: 3.34 µM
Colon cancer cell lines; read-out: GI50 MG-MID
  GI50: 8.84 µM
CNS cancer cell lines; read-out: GI50 MG-MID
  GI50: 13.2 µM
[1]; read-out: GI50 MG-MID
  GI50: 11.4 µM
SR
  GI50: 2.82 µM
SR; read-out: percent growth inhibition
  inhibition at 10 µM: 85.6%
NSCLC cell lines; read-out: GI50 MG-MID
  GI50: 13.7 µM
SF-539
  GI50: 15.6 µM
  inhibition at 10 µM: 152%
Melanoma cell lines; read-out: GI50 MG-MID
  GI50: 10.6 µM
MDA-MB-435
  GI50: 3.04 µM
  inhibition at 10 µM: 92%
[2]
  GI50 at 48 h: > 100 µM
[3]
  Safety index: >1
HL-60(TB)
  GI50: 6.25 µM
  inhibition at 10 µM: 54.6%
RPMI-8226
  GI50: 1.76 µM
  inhibition at 10 µM: 98.6%
MOLT-4
  GI50: 3.54 µM
  inhibition at 10 µM: 57.3%
UACC-257
  GI50: 14.4 µM
  inhibition at 10 µM: 39.6%
[4]; read-out: GI50 MG-MID
  GI50: 13.8 µM
A549/ATCC
  GI50: 17.3 µM
  inhibition at 10 µM: 27.2%
SNB-19
  GI50: 14 µM
  inhibition at 10 µM: 34.9%
OVCAR-8; OVCAR-8
  GI50: 13.1 µM
OVCAR-8
  inhibition at 10 µM: 88.3%
Human VEGFR-2
  IC50: 2 ± 0.023 µM

## CC(=O)Nc1ccc(CNc2cccc(C(=O)/C=C/c3cccnc3)c2)cc1 [Compound 5b, (E)-N-(4-(((3–(3-(pyridin-3-yl)acryloyl)phenyl)amino)methyl)phenyl)acetamide]
Renal cancer cell lines; read-out: GI50 MG-MID
  GI50: 5.2 µM
Renal cancer cell lines; read-out: MG-MID GI50
  GI50: 5.2 µM
Renal cancer cell lines; full panel MG-MID / Renal Cancer subpanel MG-MID
  SI (Selectivity Index): 0.89
MDA-MB-231/ATCC
  GI50: 2.16 µM
MDA-MB-468
  GI50: 1.67 µM
  inhibition at 10 µM: 175%
SF-295
  GI50: 10.3 µM
  inhibition at 10 µM: 91.9%
UO-31
  GI50: 3.04 µM
SW-620
  GI50: 1.83 µM
  inhibition at 10 µM: 169%
Breast cancer cell lines; read-out: GI50 MG-MID
  GI50: 2.45 µM
Breast cancer cell lines; read-out: MG-MID GI50
  GI50: 2.45 µM
Breast cancer cell lines; full panel MG-MID / Breast Cancer subpanel MG-MID
  SI (Selectivity Index): 1.90
CAKI-1
  GI50: 12.2 µM
  inhibition at 10 µM: 95.9%
SN12C
  GI50: 2.01 µM
  inhibition at 10 µM: 124%
RXF 393
  GI50: 3.09 µM
  inhibition at 10 µM: 194%
DU-145
  GI50: 5.15 µM
  inhibition at 10 µM: 92.2%
Leukaemia cell lines; read-out: GI50 MG-MID
  GI50: 2.49 µM
Leukaemia cell lines; read-out: MG-MID GI50
  GI50: 2.49 µM
Leukaemia cell lines; full panel MG-MID / leukaemia subpanel MG-MID
  SI (Selectivity Index): 1.87
Colon cancer cell lines; read-out: GI50 MG-MID
  GI50: 3.26 µM
Colon cancer cell lines; read-out: MG-MID GI50
  GI50: 3.26 µM
Colon cancer cell lines; full panel MG-MID / Colon Cancer subpanel MG-MID
  SI (Selectivity Index): 1.43
CNS cancer cell lines; read-out: GI50 MG-MID
  GI50: 7.46 µM
CNS cancer cell lines; read-out: MG-MID GI50
  GI50: 7.46 µM
CNS cancer cell lines; full panel MG-MID / CNS Cancer subpanel MG-MID
  SI (Selectivity Index): 0.62
[1]; read-out: GI50 MG-MID
  GI50: 5.71 µM
[1]; read-out: MG-MID GI50
  GI50: 5.71 µM
[1]; full panel MG-MID / Ovarian Cancer subpanel MG-MID
  SI (Selectivity Index): 0.81
SR
  GI50: 2.01 µM
NSCLC cell lines; read-out: GI50 MG-MID
  GI50: 7.24 µM
NSCLC cell lines; read-out: MG-MID GI50
  GI50: 7.24 µM
NSCLC cell lines; full panel MG-MID / NSCLC subpanel MG-MID
  SI (Selectivity Index): 0.64
SF-539
  GI50: 6.35 µM
  inhibition at 10 µM: 170%
Melanoma cell lines; read-out: GI50 MG-MID
  GI50: 3.99 µM
Melanoma cell lines; read-out: MG-MID GI50
  GI50: 3.99 µM
Melanoma cell lines; full panel MG-MID / Melanoma subpanel MG-MID
  SI (Selectivity Index): 1.12
MDA-MB-435
  GI50: 2.28 µM
  inhibition at 10 µM: 124%
[2]
  GI50 at 48 h: > 100 µM
[3]
  Safety index: >1
HL-60(TB)
  GI50: 2.78 µM
  inhibition at 10 µM: 144%
RPMI-8226
  GI50: 1.92 µM
  inhibition at 10 µM: 125%
MOLT-4
  GI50: 2.88 µM
  inhibition at 10 µM: 128%
UACC-257
  GI50: 9.35 µM
  inhibition at 10 µM: 120%
[4]; read-out: GI50 MG-MID
  GI50: 4.1 µM
[4]; read-out: MG-MID GI50
  GI50: 4.1 µM
[4]; full panel MG-MID / Prostatic Cancer subpanel MG-MID
  SI (Selectivity Index): 1.13
A549/ATCC
  GI50: 14.9 µM
  inhibition at 10 µM: 27.8%
SNB-19
  GI50: 3.61 µM
  inhibition at 10 µM: 99.1%
OVCAR-8
  inhibition at 10 µM: 97.1%
Human VEGFR-2
  IC50: 1.77 ± 0.021 µM

## CC(=O)Nc1ccc(/C=C/C(=O)c2cccc(NCc3ccc4oc(=O)ccc4c3)c2)cc1 [Compound 5k, (E)-N-(4–(3-oxo-3–(3-(((2-oxo-2H-chromen-6-yl)methyl)amino)phenyl)prop-1-en-1-yl)phenyl)acetamide]
MDA-MB-468
  inhibition at 10 µM: 72.9%
SF-295
  inhibition at 10 µM: 36.8%
SW-620
  inhibition at 10 µM: 52.2%
CAKI-1
  inhibition at 10 µM: 37.7%
SN12C
  inhibition at 10 µM: 29.5%
RXF 393
  inhibition at 10 µM: 18%
DU-145
  inhibition at 10 µM: 18.3%
SF-539
  inhibition at 10 µM: 19%
MDA-MB-435
  inhibition at 10 µM: 22.1%
HL-60(TB)
  inhibition at 10 µM: 59%
RPMI-8226
  inhibition at 10 µM: 80.5%
MOLT-4
  inhibition at 10 µM: 84.2%
UACC-257
  inhibition at 10 µM: 45.1%
A549/ATCC
  inhibition at 10 µM: 21.5%
SNB-19
  inhibition at 10 µM: 38.8%
OVCAR-8
  inhibition at 10 µM: 34.9%
